Test results as given in the NIST ThermoML archive (doi:10.1016/j.fluid.2017.10.027).

Conditions: Liquid; for mass density: Vibrating tube method; for speed of sound: Sing-around technique in a fixed-path interferometer

CCCOCCO [2-propoxyethanol]
Conditions	mass density, 100 kPa [kg/m3]	mass density, 101.33 kPa [kg/m3]	mass density, 2500 kPa [kg/m3]	mass density, 5000 kPa [kg/m3]	mass density, 10000 kPa [kg/m3]	mass density, 15000 kPa [kg/m3]	mass density, 20000 kPa [kg/m3]	mass density, 25000 kPa [kg/m3]	mass density, 30000 kPa [kg/m3]	speed of sound, 101.33 kPa [m/s]
293.15 K	911	–	913	915	918	922	925	928	931	–
298.15 K	–	907.23	–	–	–	–	–	–	–	1298.8
303.15 K	903	–	904	906	910	913	917	920	923	–
313.15 K	894	–	896	898	901	905	908	912	915	–
323.15 K	885	–	887	889	893	897	900	904	907	–
333.15 K	876	–	878	880	884	888	892	895	899	–
343.15 K	867	–	869	871	875	879	883	887	891	–
353.15 K	857	–	860	862	866	871	875	879	882	–
363.15 K	848	–	850	853	857	862	866	870	874	–
373.15 K	838	–	840	843	848	853	858	862	866	–
383.15 K	828	–	830	833	839	844	849	853	858	–
393.15 K	817	–	820	823	829	835	840	845	849	–
403.15 K	806	–	810	813	819	825	831	836	841	–
413.15 K	795	–	799	803	810	816	822	827	832	–

CCOCCO [2-ethoxyethan-1-ol]
Conditions	mass density, 100 kPa [kg/m3]	mass density, 101.33 kPa [kg/m3]	mass density, 2500 kPa [kg/m3]	mass density, 5000 kPa [kg/m3]	mass density, 10000 kPa [kg/m3]	mass density, 15000 kPa [kg/m3]	mass density, 20000 kPa [kg/m3]	mass density, 25000 kPa [kg/m3]	mass density, 30000 kPa [kg/m3]	speed of sound, 101.33 kPa [m/s]
293.15 K	931	–	933	934	938	941	944	947	950	–
298.15 K	–	925.64	–	–	–	–	–	–	–	1305.7
303.15 K	922	–	924	925	929	932	936	939	942	–
313.15 K	913	–	914	916	920	924	927	930	933	–
323.15 K	903	–	905	907	911	915	918	922	925	–
333.15 K	894	–	896	898	902	906	910	913	917	–
343.15 K	884	–	886	889	893	897	901	905	908	–
353.15 K	874	–	877	879	884	888	892	896	900	–
363.15 K	864	–	867	869	874	879	883	887	891	–
373.15 K	854	–	857	859	865	869	874	878	882	–
383.15 K	843	–	846	849	855	860	865	869	874	–
393.15 K	832	–	836	839	845	850	855	860	865	–

CCCCOCCO [2-butoxyethan-1-ol]
Conditions	mass density, 100 kPa [kg/m3]	mass density, 101.33 kPa [kg/m3]	mass density, 2500 kPa [kg/m3]	mass density, 5000 kPa [kg/m3]	mass density, 10000 kPa [kg/m3]	mass density, 15000 kPa [kg/m3]	mass density, 20000 kPa [kg/m3]	mass density, 25000 kPa [kg/m3]	mass density, 30000 kPa [kg/m3]	speed of sound, 101.33 kPa [m/s]
293.15 K	900	–	902	903	907	910	913	916	919	–
298.15 K	–	896.17	–	–	–	–	–	–	–	1304.7
303.15 K	892	–	893	895	899	902	905	909	912	–
313.15 K	883	–	885	887	889	894	898	901	904	–
323.15 K	873	–	875	877	879	886	890	893	896	–
333.15 K	866	–	868	870	874	878	882	885	889	–
343.15 K	857	–	860	862	866	870	874	877	881	–
353.15 K	849	–	851	853	857	862	866	869	873	–
363.15 K	839	–	842	844	849	853	857	861	865	–
373.15 K	830	–	833	835	840	845	849	853	857	–
383.15 K	821	–	823	826	831	836	841	845	849	–
393.15 K	811	–	814	817	822	827	832	837	841	–
403.15 K	801	–	804	807	813	819	824	829	833	–
413.15 K	790	–	794	797	804	810	815	821	825	–
